{
  "source": "patent US12083115B2",
  "about": "“Methods for treating neurological symptoms associated with lysosomal storage diseases” (Genzyme Corporation, priority 2020, dated 2024)",
  "key": {"[1]": {"system": "GM3 expression in C32 human melanoma cells", "test": "GM3 fluorescent-linked immunosorbent assay (FLISA), C32", "format": "cell-based", "conditions": "48 hours", "description": "Inhibition of glucosylceramide synthase activity can be measured with one or more assays. A first assay is a microsomal assay that directly measures the conversion of ceramide to glucosylceramide by HPLC. Microsomes are a source of glucosylceramide synthase activity in the microsomal assay. A second assay is a cell based, phenotypic assay that monitors cell surface expression of the downstream lipid GM3 by antibody mediated immunofluorescence. Specific protocols are provided below.\nThis is a phenotypic assay that measures GM3 expression in B16 mouse melanoma or C32 human melanoma cells following treatment with test compounds. Cell surface GM3 expression is determined by antibody mediated fluorescence.\nCompounds are diluted in media and plated in 384 well plates in DMSO. B16 and C32 cells are assayed at densities of 20,000 cells/ml and 62,500 cells/ml, respectively, per well. Each titration curve contains 10 points that are assayed in duplicate on each test run. The plates are incubated for 48 hours at 37° C., 5% CO2, and are then washed once with TBS. Anti-GM3 antibody is added to each well and the plates are then incubated for an additional one hour at room temperature. Plates are subsequently washed twice and incubated for an additional hour with the labeled secondary antibody. Following the final incubation, the plates are washed twice and the fluorescence at λex=D640/20 nm and λem=657 nm is detected on a fluorescent reader.\nThe results of the microsomal assays are expressed as “GCS IC50,” which represents the concentration of the compound causing 50% inhibition of glucosylceramide synthase activity. The results of the cell-based assays are expressed as “GM3 B16 IC50” or “GM3 C32 IC50” for the B16 assay and the C32 assay, respectively. These values represent the concentration of the compound causing 50% inhibition of GM3 expression on the cell surface."}, "[2]": {"system": "healthy, human volunteers", "test": "Phase 1 studies: safety profile", "format": "in vivo", "experimental": "Compound 2 is also known as venglustat.\nIn all studies, safety profile was assessed by monitoring treatment-emergent adverse events (TEAEs) through 10 days after last dose of study medication, including serious adverse events [SAEs]), ECG monitoring, laboratory values, and physical examinations."}, "[3]": {"system": "plasma GL-3 (globotriaosylceramide)", "test": "Study 2: plasma GL-3 pharmacodynamics", "format": "in vivo, human", "experimental": "(§1) The study enrolled and randomized 36 healthy adults (19 men and 17 women) (n=9 each to group).\n(§2) Pharmacodynamic endpoints (plasma GL-1, GL-3, and GM3 concentrations) were assessed on Days 1-5, 8, 11, 13, and 14, at 0 hours […]; and on Day 15, at 24 hours after the Day 14 dose."}, "[4]": {"system": "adult patients with Gaucher disease Type 3", "test": "Clinical study in GD-3 patients: ataxia, SARA scale", "format": "in vivo, human", "set-up": "key to SARA Cumulative Score, Average Score excluding Patient 4 / SARA Cumulative Score: SARA, eight ataxia attributes summed, 0-40 scale; key to mean improvement in SARA score: change in SARA score (0-40 scale)", "experimental": "The endpoint assessments are related to safety, CSF biomarkers, pharmacokinetics/pharmacodynamics, systemic disease, and neuroimaging and neurological function (CNS/neurological manifestations).\nDuring the study patients were evaluated for safety and tolerability, CSF and plasma biomarkers (glucosylceramide, GL-1; glucosylsphingosine, lyso-GL1), pharmacokinetics, markers for systemic disease (spleen and liver volume measured by magnetic resonance imaging (MRI), platelet count, hemoglobin levels), indicia of interstitial lung disease (high resolution pulmonary computed tomography (CT)), and horizontal saccadic eye movement. In addition, exploratory biomarkers were quantified in CSF of GD3 patients: ceramide (the precursor of GL-1), chitotriosidase (CHITO), GM3, and GPNMB. Symptoms of ataxia were measured using the SARA scale, neurological symptoms were measured using the trail making test, and functional MRI was used to assess neural connectivity in the brain.\nThe degree of ataxia at baseline and throughout the study was evaluated by the Scale for Assessment and Rating of Ataxia (SARA; Schmitz-Hubsch et al. [2006]), which assesses eight distinct attributes of cerebellar ataxia on a scale of 0-40. The eight attributes are gait, stance, sitting, speech disturbance, finger chase, nose-finger test, fast alternate hand movement, and heel-shin slide. SARA ataxia scoring results for all six patients is presented in the chart below: […]"}, "[5]": {"system": "plasma GM3 (GM3 ganglioside)", "test": "Study 2: plasma GM3 pharmacodynamics", "format": "in vivo, human", "experimental": "as §1, §2"}},
  "data": [
    {"smiles": "CC(C)(NC(=O)O[C@@H]1CN2CCC1CC2)c1csc(-c2ccc(F)cc2)n1", "note": "[Compound 2, (S)-quinuclidin-3-yl 2-(2-(4-fluorophenyl)thiazol-4-yl)propan-2-ylcarbamate]", "values": [
      {"measurement": "IC50", "setting": "[1]", "value": 9.6, "unit": "µM"},
      {"measurement": "Vital signs", "setting": "[2]; all Phase 1 studies", "value": "no relevant changes from baseline"},
      {"measurement": "hematologic or biochemical abnormalities", "setting": "[2]; all Phase 1 studies", "value": "No clinically relevant hematologic or biochemical abnormalities"},
      {"measurement": "deaths, SAEs, severe TEAEs, TEAEs leading to study discontinuation", "setting": "[2]; all Phase 1 studies, through 10 days after last dose", "value": "no deaths, SAEs, severe TEAEs, or TEAEs leading to study discontinuation"},
      {"measurement": "ECG parameters", "setting": "[2]; single ascending dose and food effect studies, multiple dose study: no statistically significant change versus placebo", "value": "no relevant changes"},
      {"measurement": "subjects with GL-3 values below LLOQ", "setting": "[3]; Day 15, 5-mg dose group (3 at baseline)", "value": 9, "unit": "subjects"},
      {"measurement": "subjects with GL-3 values below LLOQ", "setting": "[3]; Day 15, 10-mg dose group (1 at baseline)", "value": 7, "unit": "subjects"},
      {"measurement": "subjects with GL-3 values below LLOQ", "setting": "[3]; Day 15, 20-mg dose group (6 at baseline)", "value": 9, "unit": "subjects"},
      {"measurement": "Plasma GL-3 over time", "setting": "[3]; all Compound 2 dose groups, low baseline values relative to LLOQ", "value": "decreased with time"},
      {"measurement": "mean SARA Score", "setting": "[4]; Excluding Patient 4, by Week 26, further slightly improved by Week 52", "value": "significantly decreased"},
      {"measurement": "SARA Cumulative Score", "setting": "[4]; Patient 1, Week 52, screening 3.0, 15 mg/day + imiglucerase", "value": 0.0},
      {"measurement": "SARA Cumulative Score", "setting": "[4]; Patient 4, Week 52, screening 3.0, 15 mg/day + imiglucerase", "value": 4.5},
      {"measurement": "SARA Cumulative Score", "setting": "[4]; Patient 5 (low Compound 2 exposure), Week 26, screening 0.5", "value": 0.0},
      {"measurement": "SARA Cumulative Score", "setting": "[4]; Patient 5 (low Compound 2 exposure), Week 52, screening 0.5", "value": 0.0},
      {"measurement": "mean improvement in SARA score", "setting": "[4]; Week 52, Excluding Patient 5 (SD=3.2)", "value": "−0.9"},
      {"measurement": "SARA Cumulative Score, Average Score excluding Patient 4", "setting": "[4]; Week 52, screening 2.80", "value": 0.90},
      {"measurement": "Mean plasma GM3 level, % of baseline", "setting": "[5]; Day 15, 5-mg dose group", "value": "42.7 % of baseline"},
      {"measurement": "Mean plasma GM3 level, % of baseline", "setting": "[5]; Day 15, 10-mg dose group", "value": "49.4 % of baseline"},
      {"measurement": "subjects with GM3 below the LLOQ", "setting": "[5]; Day 15, 10-mg dose group", "value": 1, "unit": "subjects"},
      {"measurement": "Mean plasma GM3 level, % of baseline", "setting": "[5]; Day 15, 20-mg dose group", "value": "57.8 % of baseline"},
      {"measurement": "subjects with GM3 below the LLOQ", "setting": "[5]; Day 15, 20-mg dose group", "value": 2, "unit": "subjects"},
      {"measurement": "start day of maximal sustained GM3 decreases", "setting": "[5]; all Compound 2 dose groups", "value": 13, "unit": "days"}
    ]}
  ]
}
